Data: US8501186B2, “Adjuvant composition for vaccine” (Serum Institute of India, Ltd., priority 2009, dated 2013)

Tested on: normal mice
Test: Comparative adjuvant activity on total anti-polysaccharide IgG levels in normal mice (Meningococcal A polysaccharide)
Format: in vivo
Settings: parenteral, 14 and 28 day; for Total IgG level: IgG day 42, Mean ± SE
Experimental: The present adjuvant and extracts were administered with Meningococcal A polysaccharide on indicated days and IgG levels were estimated on day 42 to assess adjuvant activity.

SMILES	Activity (%) (percent immunomodulatory activity) (0.0185 mg/kg)	Total IgG level (0.0185 mg/kg)	Activity (%) (percent immunomodulatory activity) (0.011 mg/kg)	Total IgG level (0.011 mg/kg)
CC1=C(C)C(=O)O[C@@H]([C@](C)(O)[C@H]2CC[C@H]3[C@@H]4[C@@H]5O[C@@H]5[C@@]5(O)CC=CC(=O)[C@]5(C)[C@H]4CC[C@]23C)C1 [Withanolide A]	14.62%	329.84 ± 86.82	–	–
CC1=C(CO)C(=O)O[C@@H]([C@@H](C)[C@H]2CC[C@H]3[C@@H]4C[C@H]5O[C@]56[C@@H](O)C=CC(=O)[C@]6(C)[C@H]4CC[C@]23C)C1 [Withaferin A]	–	–	38.12%	397.47 ± 93.71
